“And” between values parts separate entries of the source, which are not always exact repeats. Equal entries are not always repeated. “Also recorded” adds a separate entry of the source.
Key:
Nsp3b [1] = details: cited from earlier work
CHIKV macrodomain [2] = target: T1, CHIKV macrodomain (Chikungunya virus, UniProt Q8JUX6); details: cited from earlier work
Nsp3b [3] = target: T2, Nsp3b (Severe acute respiratory syndrome coronavirus 2, UniProt P0DTD1); format: biochemical, SARS-CoV-2
SARS-CoV-2 B.1 = experiment: microbe, parasite or virus in culture; format: cell-based; details: for EC50: Severe acute respiratory syndrome coronavirus 2, VeroE6/TMPRSS2, 48 h
CHIKV (OPY1) = experiment: microbe, parasite or virus in culture; format: cell-based; details: Chikungunya virus, Vero C1008, 48 h
[4] = target: Nsp3b (SARS-CoV-2 macrodomain) (Severe acute respiratory syndrome coronavirus 2, UniProt P0DTD1); experiment: biochemical; format: binding
in vitro [5] = details: African green monkey
SARS-CoV macrodomain = SARS-CoV macrodomain (Severe acute respiratory syndrome coronavirus, UniProt P0C6X7); experiment: biochemical; format: binding
CHIKV macrodomain [6] = target: T1, CHIKV macrodomain; format: binding
in vitro [7] = details: African green monkey; remark: listed apart in the source
MERS-CoV macrodomain [8] = target: T3, MERS-CoV macrodomain (Middle East respiratory syndrome-related coronavirus, UniProt K9N7C7); format: biochemical
[9] = target: Rubella virus (RuV) macrodomain (Rubella virus, UniProt Q86500); format: binding
hMacroD2 = hMacroD2 (Homo sapiens, UniProt A1Z1Q3); format: binding
Nsp3b [10] = target: T2, Nsp3b; format: binding, SARS-CoV-2
MERS-CoV macrodomain [11] = target: T3, MERS-CoV macrodomain; experiment: biochemical; format: binding

T3 sequence (K9N7C7 1110-1276 limits assumed): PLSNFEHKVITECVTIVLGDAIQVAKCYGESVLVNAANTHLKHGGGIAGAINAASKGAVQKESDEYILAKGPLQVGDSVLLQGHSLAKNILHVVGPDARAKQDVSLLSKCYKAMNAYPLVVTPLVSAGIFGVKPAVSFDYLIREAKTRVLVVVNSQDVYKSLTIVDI
T1 sequence (Q8JUX6 1334-1493 limits assumed): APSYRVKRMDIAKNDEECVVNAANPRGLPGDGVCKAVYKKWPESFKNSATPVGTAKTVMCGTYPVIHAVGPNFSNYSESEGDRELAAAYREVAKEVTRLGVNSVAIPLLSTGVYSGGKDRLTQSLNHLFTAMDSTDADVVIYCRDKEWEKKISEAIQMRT
Chain of hMacroD2 (A1Z1Q3 7-243): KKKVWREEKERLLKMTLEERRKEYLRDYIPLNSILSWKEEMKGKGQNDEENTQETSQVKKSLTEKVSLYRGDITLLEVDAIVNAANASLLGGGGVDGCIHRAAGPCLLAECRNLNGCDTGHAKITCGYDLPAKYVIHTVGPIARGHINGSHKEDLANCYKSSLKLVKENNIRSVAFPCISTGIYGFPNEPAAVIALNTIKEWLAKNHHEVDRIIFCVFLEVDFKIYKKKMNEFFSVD
Chain of Rubella virus (RuV) macrodomain (Q86500 806-985 limits assumed): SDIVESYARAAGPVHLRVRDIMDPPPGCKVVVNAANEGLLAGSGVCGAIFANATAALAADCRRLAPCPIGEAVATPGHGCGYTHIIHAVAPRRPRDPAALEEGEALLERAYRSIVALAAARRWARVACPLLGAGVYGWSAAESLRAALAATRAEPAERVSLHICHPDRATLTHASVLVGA

α‐azido‐ADPr
IC50 (Nsp3b [1]): 0.49 µM

N#C[C@@]1(c2ccc3c(N)ncnn23)O[C@H](CO)[C@@H](O)[C@H]1O [GS‐441524]
interaction with CHIKV macrodomain (CHIKV macrodomain [2]): no significant interaction; also recorded: does not bind detectably | reduction of the k value versus free macrodomain (Nsp3b [3]): 33%

CCC(CC)COC(=O)[C@H](C)N[P@](=O)(OC[C@H]1O[C@@](C#N)(c2ccc3c(N)ncnn23)[C@H](O)[C@@H]1O)Oc1ccccc1 [remdesivir, reference compound]
EC50 (SARS-CoV-2 B.1): 5.48 µM

NC(=O)c1nc(F)c[nH]c1=O [Favipiravir, reference compound]
EC50 (CHIKV (OPY1)): 11.3 µM

Nc1ncnc2c1ncn2[C@@H]1O[C@H](COP(=O)(O)OP(=O)(O)OP(=O)(O)O)[C@@H](O)[C@H]1O [ATP]
Kd [4]: 1900 to 2500 µM

N#C[C@@]1(c2ccc3c(N)ncnn23)O[C@H](COP(=O)(O)O)[C@@H](O)[C@H]1O [RMP]
Kd [4]: ~10 µM

β‐O‐methyl‐ADPr
IC50 (Nsp3b [1]): 127 µM

Nc1ncnc2c1ncn2[C@@H]1O[C@H](COP(=O)(O)OP(=O)(O)NP(=O)(O)O)[C@@H](O)[C@H]1O [APPNHP]
Kd [4]: 1900 to 2500 µM

Nc1ncnc2c1ncn2[C@@H]1O[C@H](COP(=O)(O)O)[C@@H](O)[C@H]1O [AMP]
Kd [4]: 1900 to 2500 µM

N#C[C@@]1(c2ccc3c(N)ncnn23)O[C@H](COS(N)(=O)=O)[C@@H](O)[C@H]1O [compound 3]
CC50 (in vitro [5]): > 40 µM | ΔG (SARS-CoV macrodomain): −7.52 kcal mol^–1 | ΔH (SARS-CoV macrodomain): −12.5 ± 0.3 kcal mol^–1 | −TΔS (SARS-CoV macrodomain): 4.96 kcal mol^–1 | Kd (SARS-CoV macrodomain; K D): 3 µM and 3.08 µM | interaction by ITC (CHIKV macrodomain [6]): no interaction was observed | pKa (physchem): 9.37 ± 0.02 | inhibition of SARS-CoV-2 (SARS-CoV-2 B.1): no measurable inhibition | EC50 (SARS-CoV-2 B.1): > 40 µM | CC50 (in vitro [7]): > 40 µM | reduction of the k value versus free macrodomain (MERS-CoV macrodomain [8]): 16% and ≈ 16% | EC50 (CHIKV (OPY1)): 21.8 µM | interaction by ITC [9]: no interaction was observed | interaction by ITC (hMacroD2): no interaction was observed; also recorded: no binding was observed | ΔG (Nsp3b [10]): −8.28 kcal mol^–1 | ΔH (Nsp3b [10]): −12.00 ± 0.07 and −12.00 kcal mol^–1 and −12.00 and −12.0 ± 0.07 kcal mol^–1 | ΔH compared to GS-441524 (Nsp3b [10]): –6.75 kcal mol^−1 | −TΔS (Nsp3b [10]): 3.71 kcal mol^–1 | reduction of the k value versus free macrodomain (Nsp3b [3]): 47% | Kd (MERS-CoV macrodomain [11]): 104 ± 13 µM | ΔG (MERS-CoV macrodomain [11]): −5.43 kcal mol^–1

ADP‐ribose [ADPr, reference compound]
reduction of the k value versus free macrodomain (MERS-CoV macrodomain [8]): 32% and ≈ 32%

Nc1ncnc2c1ncn2[C@@H]1O[C@H](COP(=O)(O)OP(=O)(O)O)[C@@H](O)[C@H]1O [ADP]
Kd [4]: > 10000 µM

— article PMC12666239 (Chembiochem, 2025)
